Measured values: patent US8460689B2, “Oral care method and kit” (3M Innovative Properties Company, priority 2009, dated 2013)

Tests used:
[1] = Evaluation of Precipitate Formation with CHG; type: physicochemical; details: 1:1 mixture of excipient solution with 3.72% CHG, visual within 30 minutes; for Precipitation at Low pH: low pH per sample
Experimental: It is thought that some excipients (inactives) may form a CHG complex, which is visible as a precipitate. Thus, CHG which complexes with an excipient, forming a precipitate would not be available for antimicrobial efficacy. The purpose of the precipitation formation testing was to observe the potential of an excipient to form a precipitates with CHG under the following test conditions.
Sample excipient solutions were prepared with distilled water to various concentrations of excipients according to Tables 12-16, below. The pH of the solutions was then adjusted to both a low pH and a high pH using either gluconic acid or NaOH. […] After combining the CHG solution with the excipient solution, the vial of the mixture was briefly swirled to mix. The mixtures were visually assessed for the presence/formation of a precipitate within 30 minutes. The results are shown in Tables P1-P5, where “Y” means precipitate was observed; “N” means no precipitate was observed; “*1” means the mixture could not be tested because a gel-like mass was formed when adding gluconic acid to reduce the pH down; and “*2” means the mixture could not be tested because it started to thicken when adding NaOH to raise the pH.

[2] = system: MRSA (methicillin-resistant Staphylococcus aureus), ATCC 33592; experiment: Test Method B2 - Second Antimicrobial Efficacy Testing; type: cell-based; details: 4 minutes
Experimental: A 0.22% wt/wt solution of CHG was prepared at a pH of 6. All pH adjustments were made using either gluconic acid or sodium hydroxide. Each of the above excipient solutions (5 mL) were mixed with an equal amount (5 mL) of CHG solution (0.22% wt/wt). The mixtures were allowed to stand for 15 minutes at ambient conditions, along with a control CHG solution. All of these samples were centrifuged at 14,000 g for 15 minutes. After centrifugation, supernatant was carefully transferred to a new vial and submitted for Antimicrobial Efficacy testing (TEST METHOD B2) and HPLC testing (TEST METHOD C2), see below.
For Test Method B2 the above Test Method B was followed, with the following changes: • 1. Bacteria was MRSA (methicillin-resistant Staphylococcus aureus), ATCC 33592, instead of P. aeruginosa. • 2. Inoculum level was approximately 6.2 logs, instead of 5.8 logs. • 3. Incubation time with MRSA was 4 minutes, instead of 2.5 minutes. • 4. Neutralizer was Neutralizing Buffer, instead of D/E Neutralizing Broth. • 5. Incubation of the Petrifilm plates was 38 hours, instead of 43 hours.

| SMILES | Precipitation at High pH [1] | Precipitation at Low pH [1] | Log Reduction of MRSA ([2]; supernatant of 0.50 wt % excipient solution mixed with equal amount of 0.22 wt % CHG) | Log Reduction of MRSA ([2]; CHG 0.22 wt % control, excipient 0.0 wt %) |
| --- | --- | --- | --- | --- |
| O=C1NS(=O)(=O)c2ccccc21.[Na] [P1, Sodium Saccharin] | Y | Y |  |  |
| O=C([O-])c1ccccc1.[Na+] [P7, Sodium Benzoate] | Y | Y |  |  |
| C/C=C/C=C/C(=O)[O-].[K+] [P4, Potassium Sorbate] | Y |  |  |  |
| O=P(O)(O)O [P16, H3PO4] | Y | Y |  |  |
| [Cl-].[K+] [P11, KCL] | Y | Y |  |  |
| O=C1[N-]S(=O)(=O)c2ccccc21.[Na+] [Sodium Saccharin, Benzoic Sulphimide Sodium Salt] |  |  | 0.0 |  |
| [Cl-].[K+] [P10, KCL] | Y | Y |  |  |
| [Cl-].[Na+] [P13, NaCl] | Y | Y |  |  |
| N=C(NCCCCCCNC(=N)NC(=N)Nc1ccc(Cl)cc1)NC(=N)Nc1ccc(Cl)cc1.O=C(O)[C@H](O)[C@@H](O)[C@H](O)[C@H](O)CO.O=C(O)[C@H](O)[C@@H](O)[C@H](O)[C@H](O)CO [CHG Control, 1,11-hexamethylene bis[5-(p-chlorophenyl)biguanide]di-D-gluconate, reference compound] |  |  |  | 3.0 |
| [Cl-].[K+] [P12, KCL] | N | N |  |  |
| O=C(O)CC(O)(CC(=O)O)C(=O)O [P19, Citric Acid] | Y | Y |  |  |
